Experimental findings from patent US12617752B2, “Rapidly metabolized lipid compound” (Beijing Jitai Life Sciences Ltd, priority 2023, dated 2026) are described below.

Series [1] in a line: Particle size and PDI of lipid nanoparticles by dynamic light scattering. It counts as physicochemical. Conditions: lipid nanoparticles with luciferase mRNA; ionizable lipid/cholesterol/DSPC/DMG-PEG2000 50/38.5/10/1.5 mol%. The method, boiled down:
(§1)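 LNPs of ionizable lipid/cholesterol/phospholipid/PEG-lipid (50/38.5/10/1.5 mol%, N/P 6) were formed by microfluidic mixing with mRNA in pH 4.5 acetate, then buffer-exchanged by ultrafiltration. Size and PDI were measured by DLS. Encapsulation came from RiboGreen fluorescence (485/528 nm) in TE pH 7.5, with and without 0.5% Triton at 37 °C for 30 min.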

Series [2] is described as follows: Encapsulation efficiency of lipid nanoparticles (Quant-it RiboGreen RNA Assay). Conditions: lipid nanoparticles with luciferase mRNA. It counts as physicochemical. The method, boiled down: as §1
A further series relates to C57BL/6 mice. Nature of the series: In vivo delivery of luciferase mRNA lipid nanoparticles in mice (bioluminescence imaging). Conditions: intravenous, single dose 0.5 mg/kg luciferase mRNA. Summed up:
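Female C57BL/6 mice, 6-8 weeks old, received luciferase mRNA lipid nanoparticles as a single intravenous dose of 0.5 mg/kg mRNA. At 6 h, D-luciferin given intraperitoneally; 10 min later, mice were imaged under isoflurane anaesthesia. Values are group mean fluorescence intensity and total photon count.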

With `CCCCCCCCCC(=O)OCC(C)(C)CCCCCN(CCCCCCOC(=O)OCC(CCCCCCC)CCCCCCC)C(=O)SCCCN(C)C` [47b], in series [1], the “Particle size (nm)” value amounted to 122.40 nm and the “Particle-size distribution (PDI)” value stood at 0.07. The “Encapsulation efficiency (%)” value in series [2] worked out at 97.27%. Moreover, in the series on C57BL/6 mice, the “Total photon count in vivo at 6 hours after administration (Total Flux)” value (“Total photon count in vivo at 6 hours” for short) is given as 2.84E+10.
Regarding `CCCCCCCCCCOC(=O)OCCCCCCN(CCO)CCCCCCC(C)(C)C(=O)OC(CCCCCCCCC)CCCCCCCCC` [48a], in series [1], the “Particle size (nm)” value was 81.22 nm and the “Particle-size distribution (PDI)” value was 0.16. For the same compound, the “Encapsulation efficiency (%)” value in series [2] was 96.13%. Further, the “Total photon count in vivo at 6 hours” value in the series on C57BL/6 mice was 8.16E+10.
In the same order, the values of `CCCCCCCCCCCOC(=O)OCCCCCCN(CCO)CCCCCCC(C)(C)C(=O)OC(CCCCCCCCCC)CCCCCCCCCC` [49a] are 100.56 nm, 0.14, 94.85% and 2.28E+10.
`CCCCCCCC(CCCCCCC)COC(=O)CCCCC(C)(C)CCN(CCO)CCCCCCOC(=O)OCC(CCCCCCC)CCCCCCC` [50a]: in series [1], the “Particle size (nm)” value worked out at 78.03 nm and the “Particle-size distribution (PDI)” value stood at 0.12. In addition, in series [2], the “Encapsulation efficiency (%)” value came to 98.67%. In addition, the “Total photon count in vivo at 6 hours” value in the series with C57BL/6 mice was found to be 2.86E+10.
Consider `CCCCCCCCOC(=O)OCC(C)(C)CCCCCN(CCCCCCOC(=O)CC(CCCCCCCC)CCCCCCCC)C(=O)SCCCCN(C)C` [50b], for which, in series [1], the “Particle size (nm)” value stood at 98.36 nm and the “Particle-size distribution (PDI)” value was 0.13. Further, the “Encapsulation efficiency (%)” value in series [2] is 98.50%. The “Total photon count in vivo at 6 hours” value in the series on C57BL/6 mice was 1.01E+10.
`CCCCCCCCCOC(=O)CCCCCCCN(CCO)CCCCC(C)(C)COC(=O)OCC(CCCCCCC)CCCCCCC` [51a]: in series [1], the “Particle size (nm)” value is 92.08 nm and the “Particle-size distribution (PDI)” value is reported as 0.15. The “Encapsulation efficiency (%)” value in series [2] amounted to 94.81%. The “Total photon count in vivo at 6 hours” value in the series on C57BL/6 mice was 3.11E+10.
In the same order, the values of `CCCCCCCCCC(=O)OCC(C)(C)CCCCCN(CCO)CCCCCCCC(=O)OC(CCCCCCCCC)CCCCCCCCC` [51b] are 91.96 nm, 0.12, 95.92% and 7.60E+10.
Turning to `CCCCCCCCCSC(=O)CCCCCCCN(CCO)CCCCCCC(C)(C)C(=O)OC(CCCCCCCC)CCCCCCCC` [52a], in series [1], the “Particle size (nm)” value was 79.40 nm and the “Particle-size distribution (PDI)” value stood at 0.09. The “Encapsulation efficiency (%)” value in series [2] amounted to 93.30%. The “Total photon count in vivo at 6 hours” value with C57BL/6 mice was 2.58E+10.
As for `CCCCCCCCCC(=O)OCC(C)(C)CCCCCN(CCCCO)CCCCCCCC(=O)OC(CCCCCCCCC)CCCCCCCCC` [52b], in series [1], the “Particle size (nm)” value worked out at 105.97 nm and the “Particle-size distribution (PDI)” value turned out to be 0.06. Further, the “Encapsulation efficiency (%)” value in series [2] is given as 90.84%. In addition, in the series on C57BL/6 mice, the “Total photon count in vivo at 6 hours” value was found to be 1.01E+11.
Turning to `CCCCCCCCCCCSC(=O)CCCCCN(CCO)CCCCCCC(C)(C)C(=O)OC(CCCCCCCC)CCCCCCCC` [53a], in series [1], the “Particle size (nm)” value is 124.00 nm and the “Particle-size distribution (PDI)” value worked out at 0.23. For the same compound, the “Encapsulation efficiency (%)” value in series [2] was 90.96%. In the series on C57BL/6 mice, the “Total photon count in vivo at 6 hours” value stood at 9.04E+10.
In the same order, the values of `CCCCCCCCCC(=O)OCC1(CCCCCN(CCO)CCCCCCCC(=O)OC(CCCCCCCCC)CCCCCCCCC)CC1` [53b] are 125.03 nm, 0.42, 91.92% and 1.00E+11.
Regarding `CCCCCCC#CCOC(=O)CCCCCCCN(CCO)CCCCCCC(C)(C)C(=O)OC(CCCCCCCC)CCCCCCCC` [54a], in series [1], the “Particle size (nm)” value amounted to 87.37 nm and the “Particle-size distribution (PDI)” value is 0.14. Also, the “Encapsulation efficiency (%)” value in series [2] was 91.34%. In the series with C57BL/6 mice, the “Total photon count in vivo at 6 hours” value worked out at 1.32E+10.
Take `CCCCCCCCCCC(=O)OCCC(C)(C)CCCCN(CCO)CCCCCCCC(=O)OC(CCCCCCCCC)CCCCCCCCC` [54b]: in series [1], the “Particle size (nm)” value was 81.37 nm and the “Particle-size distribution (PDI)” value came to 0.17. For the same compound, in series [2], the “Encapsulation efficiency (%)” value is 96.69%. In the series with C57BL/6 mice, the “Total photon count in vivo at 6 hours” value was determined as 5.71E+10.
Take `CCCCCC#CCCOC(=O)CCCCCCCN(CCO)CCCCCCC(C)(C)C(=O)OC(CCCCCCCC)CCCCCCCC` [55a]: in series [1], the “Particle size (nm)” value stood at 126.17 nm and the “Particle-size distribution (PDI)” value is 0.16. In addition, the “Encapsulation efficiency (%)” value in series [2] was 73.85%. Besides, the “Total photon count in vivo at 6 hours” value in the series on C57BL/6 mice amounted to 1.96E+10.
In the same order, the values of `CCCCCCCCCCC(=O)OCCC(C)(C)CCCCN(CCCCO)CCCCCCCC(=O)OC(CCCCCCCCC)CCCCCCCCC` [55b] are 90.37 nm, 0.11, 94.65% and 1.02E+11.
With `CCCCCCCCCC(=O)OCCC(C)(C)CCCCN(CCO)CCCCCCCC(=O)OCC(CCCCCCC)CCCCCCC` [56b], in series [1], the “Particle size (nm)” value amounted to 98.59 nm and the “Particle-size distribution (PDI)” value was 0.16. Further, the “Encapsulation efficiency (%)” value in series [2] was 93.87%. Also, the “Total photon count in vivo at 6 hours” value with C57BL/6 mice amounted to 8.35E+10.
In the same order, the values of `CCCCCC/C=C\COC(=O)CCCCCCCN(CCO)CCCCCCC(C)(C)C(=O)OC(CCCCCCCC)CCCCCCCC` [57a] are 79.17 nm, 0.17, 95.41% and 3.42E+10.
The corresponding values for `CCCCCCCCCC(=O)OCCCC(C)(C)CCCN(CCO)CCCCCCCC(=O)OCC(CCCCCCC)CCCCCCC` [57b] are 98.23 nm, 0.18, 94.15% and 3.86E+10.
On to `CCCCCCCCCNC(=O)CCCCCCCN(CCO)CCCCCCC(C)(C)C(=O)OC(CCCCCCCC)CCCCCCCC` [58a], for which, in series [1], the “Particle size (nm)” value is on record as 187.50 nm and the “Particle-size distribution (PDI)” value is given as 0.18. The “Encapsulation efficiency (%)” value in series [2] is recorded as 68.54%. Moreover, in the series on C57BL/6 mice, the “Total photon count in vivo at 6 hours” value worked out at 2.72E+10.
In the case of `CCCCCCCCCC(=O)OCC1(CCCCCN(CCCO)CCCCCCCC(=O)OCC(CCCCCCC)CCCCCCC)CC1` [58b], in series [1], the “Particle size (nm)” value is 112.93 nm and the “Particle-size distribution (PDI)” value is 0.15. The “Encapsulation efficiency (%)” value in series [2] turned out to be 92.88%. The “Total photon count in vivo at 6 hours” value in the series on C57BL/6 mice is on record as 6.17E+10.
Consider `CCCCCCCCCC(=O)OCCC(C)(C)CCCCN(CCCCO)CCCCCCCC(=O)OCC(CCCCCCC)CCCCCCC` [59b], for which, in series [1], the “Particle size (nm)” value is 127.23 nm and the “Particle-size distribution (PDI)” value came to 0.12. Further, the “Encapsulation efficiency (%)” value in series [2] stood at 80.27%. The “Total photon count in vivo at 6 hours” value with C57BL/6 mice stood at 1.04E+11.
As to `CCCCCCCCCCOC(=O)CCCCC(C)(C)CCN(CCCCCCCC(=O)OC(CCCCCCCCC)CCCCCCCCC)C(=O)SCCCCN(C)C` [60a], in series [1], the “Particle size (nm)” value amounted to 92.74 nm and the “Particle-size distribution (PDI)” value is listed as 0.15. In addition, the “Encapsulation efficiency (%)” value in series [2] came to 97.44%. Also, the “Total photon count in vivo at 6 hours” value with C57BL/6 mice was found to be 1.75E+10.
For `CCCCCCCCCOC(=O)CCCCC(C)(C)CCN(CCCCCCCC(=O)OCC(CCCCCCC)CCCCCCC)C(=O)SCCCN(C)C` [61a], in series [1], the “Particle size (nm)” value stood at 111.90 nm and the “Particle-size distribution (PDI)” value came out at 0.09. Also, the “Encapsulation efficiency (%)” value in series [2] worked out at 95.87%. The “Total photon count in vivo at 6 hours” value in the series with C57BL/6 mice stood at 1.32E+10.
Take `CCCCCCCCCCCOC(=O)CCCCCN(CCO)CCCCC(C)(C)CCC(=O)OC(CCCCCCCC)CCCCCCCC` [62a]: in series [1], the “Particle size (nm)” value stood at 98.07 nm and the “Particle-size distribution (PDI)” value turned out to be 0.17. Moreover, the “Encapsulation efficiency (%)” value in series [2] worked out at 89.88%. In addition, the “Total photon count in vivo at 6 hours” value with C57BL/6 mice is 1.20E+10.
In the same order, the values of `CCCCCCCCCCC(=O)OCC(C)(C)CCCCCN(CCCCO)CCCCCCCC(=O)OCCCC(CCCCCC)CCCCCC` [63b] are 165.53 nm, 0.09, 84.27% and 2.72E+10.
With `CCCCCCCCCCCOC(=O)CCCCC(C)(C)CCN(CCO)CCCCCCCC(=O)OC(CCCCCCCCCC)CCCCCCCCCC` [64a], in series [1], the “Particle size (nm)” value amounted to 86.99 nm and the “Particle-size distribution (PDI)” value was determined as 0.15. Moreover, in series [2], the “Encapsulation efficiency (%)” value is on record as 96.72%. In addition, the “Total photon count in vivo at 6 hours” value with C57BL/6 mice was determined as 9.82E+10.
In the same order, the values of `CCCCCCCCCC(=O)OCCCC(C)(C)CCCN(CCCCO)CCCCCCCC(=O)OCC(CCCCCCC)CCCCCCC` [64b] are 143.67 nm, 0.09, 89.27% and 3.36E+10.
In the case of `CCCCCCCCCCOC(=O)CCCCC(C)(C)CCN(CCO)CCCCCCCC(=O)OCC(CCCCCCCC)CCCCCCCC` [65a], in series [1], the “Particle size (nm)” value is recorded as 95.88 nm and the “Particle-size distribution (PDI)” value stood at 0.16. The “Encapsulation efficiency (%)” value in series [2] is on record as 95.93%. For the same compound, the “Total photon count in vivo at 6 hours” value with C57BL/6 mice worked out at 6.53E+10.
